# Active and inactive are the calls of the source. The rule behind the calls is not given here.
# Assays:
# [1] = tested on: Mus musculus; test: Effect on uterine weight in ovariectomized C57B16 mouse at 0.1 to 2.4 nM, sc; type: functional, organism-based; settings: Uterus
# [2] = tested on: Mus musculus; test: Inhibition of GPR30-mediated epithelial uterine cell proliferation in ovariectomized C57B16 mouse at 2.4 to 27 nM, sc relative to control; type: functional, organism-based; settings: Uterine epithelium
# [3] = tested on: Mus musculus; test: Effect on uterine weight in ovariectomized C57B16 mouse at 2.4 to 27 nM, sc; type: functional, organism-based; settings: Uterus
# [4] = target: T1, Estrogen receptor beta (Homo sapiens, UniProt Q92731); test: Binding affinity to ERbeta receptor in COS7 cells by competitive binding assay; type: cell-based, COS-7
# [5] = target: T2, Estrogen receptor (Homo sapiens) (UniProt P03372); test: Antagonist activity in ERalpha-transfected COS7 cells assessed as inhibition of E2-mediated PI(3)K activation; type: functional, cell-based; settings: COS-7
# T2 sequence (whole entry): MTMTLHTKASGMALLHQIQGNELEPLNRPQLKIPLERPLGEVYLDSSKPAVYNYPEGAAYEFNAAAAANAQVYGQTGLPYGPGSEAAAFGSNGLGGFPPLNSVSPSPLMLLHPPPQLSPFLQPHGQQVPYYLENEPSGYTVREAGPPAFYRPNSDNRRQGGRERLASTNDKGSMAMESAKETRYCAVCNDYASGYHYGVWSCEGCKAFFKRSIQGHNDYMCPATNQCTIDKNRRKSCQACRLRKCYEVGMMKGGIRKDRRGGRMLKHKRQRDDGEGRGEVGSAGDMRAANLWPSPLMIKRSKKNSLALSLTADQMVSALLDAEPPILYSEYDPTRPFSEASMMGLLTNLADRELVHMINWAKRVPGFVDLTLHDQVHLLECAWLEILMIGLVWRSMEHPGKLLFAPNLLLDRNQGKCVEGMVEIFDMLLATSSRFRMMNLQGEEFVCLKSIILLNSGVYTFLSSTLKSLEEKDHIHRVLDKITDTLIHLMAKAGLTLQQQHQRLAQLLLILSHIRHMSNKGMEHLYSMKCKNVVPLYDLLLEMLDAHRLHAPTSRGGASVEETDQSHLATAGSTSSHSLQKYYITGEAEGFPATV
# [6] = target: T1, Estrogen receptor beta; test: Antagonist activity in ERbeta-transfected COS7 cells assessed as inhibition of E2-mediated PI(3)K activation; type: functional, cell-based; settings: COS-7
# [7] = tested on: Mus musculus; test: Inhibition of G1-induced GPR30-mediated epithelial uterine cell proliferation in sc dosed ovariectomized C57B16 mouse; type: functional, organism-based; settings: Uterine epithelium
# [8] = tested on: Mus musculus; test: Inhibition of estrogen-induced GPR30-mediated epithelial uterine cell proliferation in sc dosed ovariectomized C57B16 mouse; type: functional, Uterine epithelium
# T1 sequence (Q92731 whole entry): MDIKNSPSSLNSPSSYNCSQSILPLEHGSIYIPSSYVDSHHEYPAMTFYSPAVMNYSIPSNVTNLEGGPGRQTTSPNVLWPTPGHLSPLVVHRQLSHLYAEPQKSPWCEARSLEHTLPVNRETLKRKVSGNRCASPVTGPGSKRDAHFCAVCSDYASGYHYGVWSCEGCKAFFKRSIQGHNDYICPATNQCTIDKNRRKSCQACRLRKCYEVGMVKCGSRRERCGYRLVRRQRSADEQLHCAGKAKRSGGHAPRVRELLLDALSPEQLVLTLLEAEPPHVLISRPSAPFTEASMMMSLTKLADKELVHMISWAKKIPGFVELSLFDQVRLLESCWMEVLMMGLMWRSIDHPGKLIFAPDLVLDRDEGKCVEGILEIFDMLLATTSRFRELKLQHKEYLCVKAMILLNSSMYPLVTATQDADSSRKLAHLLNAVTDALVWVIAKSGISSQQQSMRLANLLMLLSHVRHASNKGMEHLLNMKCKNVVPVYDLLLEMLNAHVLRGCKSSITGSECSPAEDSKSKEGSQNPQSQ
Compound,Activity [1],Activity [2],Activity [3],Ki [4],Activity [5],Activity [6],inhibition [7],inhibition (INH) [8]
CC(=O)c1ccc2c(c1)[C@@H]1C=CC[C@@H]1[C@H](c1cc3c(cc1Br)OCO3)N2,inactive,,,,,,,
Brc1cc2c(cc1[C@@H]1Nc3ccccc3[C@@H]3C=CC[C@@H]31)OCO2,,inactive,inactive,> 10 µM,inactive,inactive,Active; Dose-dependent effect,50%
